Measurements taken from US20240199755A1, “ANTAGONISTS AND AGONISTS OF THE TRANSFERRIN RECEPTOR-2 FOR USE IN THE TREATMENT OF DISEASES OF THE BONE” (Kymab Limited, priority 2018, published 2024).

Legend:
[1] = test system: Sost mRNA expression in osteoblasts; assay: Sost mRNA expression (qPCR) in ex vivo differentiated osteoblasts after anisomycin; assay type: cell-based, mice; conditions: 100 nM anisomycin, 24 h
Description: Primary murine osteoblasts were differentiated from the bone marrow using standard osteogenic medium in DMEM with 10% FCS, 1% penicillin/streptomycin (Life Technologies, Germany). RNA was isolated at various time points and day 7 osteoblasts were used for immunofluorescence analysis of Tfr2 and for the deep sequencing analysis.
(§1) Signaling studies: day 7 differentiated cells were treated with 50 ng/ml BMP-2, BMP-4 or BMP-6 for 0, 20, and 40 min and lysed in protein lysis buffer (at least two independent experiments with 3 n each). Anisomycin was used to activate MAPK signaling on day 7 differentiated osteoblasts. Cells were treated with 100 nM anisomycin for 20 min for subsequent protein analysis. For RNA isolation and detection of gene expression, cells were treated with different doses of anisomycin for 24 h (two independent experiments with 3 n each).
RNA from cell cultures was isolated with the High Pure RNA Isolation Kit (Roche) and RNA from the bones of mice was isolated by crushing flushed bones (femur and tibia) in liquid nitrogen and collecting the bone powder in Trifast (Peqlab, Germany). Other organs were homogenized directly in Trifast using an ultraturrax (IKA, Germany). […] The results were calculated using the ΔΔCT method and are presented in x-fold increase relative to β-actin (or GAPDH where indicated) mRNA levels.

[2] = test system: ERK (pERK) and p38 (pp38) signaling in osteoblasts; assay: Western blot of ERK and p38 activation in osteoblasts after anisomycin; assay type: cell-based, mice; conditions: 100 nM anisomycin for 20 min
Description: as §1
Cells were lysed in a buffer containing 20 mM Tris/HCl pH 7.4, 1% SDS, and a protease inhibitor (complete mini, Roche, Germany). To isolate protein from tissues, the protein fraction of the Trifast procedure was used and further processed according to the manufacturer's protocol. The protein concentration was determined using the BCA method (Pierce, Germany). Twenty μg of heatdenatured protein was loaded onto a 10% gel, separated, and transferred onto a 0.2 μm nitrocellulose membrane (Whatman, Germany). […]

[3] = test system: bone mass of Tfr2-/- mice; assay: Anisomycin treatment of WT and Tfr2-/- mice; assay type: in vivo; conditions: 5 mg/kg anisomycin for 3 weeks
Tfr2-ECD = target: T1, Tfr2-ECD (Mus musculus, UniProt Q9JKX3); assay: SPR binding of holo-Tf and BMP receptors to Tfr2-ECD immobilized on the sensor chip; parameters: species or system murine; conditions: increasing holo-Tf concentrations without intermediate regeneration
T1 construct: full-length extracellular domain (ECD, aa 103-798) of murine Tfr2; His (N); MBP (N); c3 (protease site between MBP and ECD) (N); made in house; host or cells: Sf9 insect cells (baculovirus, pOCC211-Tfr2-ECD)
T1 sequence (Q9JKX3 103-798): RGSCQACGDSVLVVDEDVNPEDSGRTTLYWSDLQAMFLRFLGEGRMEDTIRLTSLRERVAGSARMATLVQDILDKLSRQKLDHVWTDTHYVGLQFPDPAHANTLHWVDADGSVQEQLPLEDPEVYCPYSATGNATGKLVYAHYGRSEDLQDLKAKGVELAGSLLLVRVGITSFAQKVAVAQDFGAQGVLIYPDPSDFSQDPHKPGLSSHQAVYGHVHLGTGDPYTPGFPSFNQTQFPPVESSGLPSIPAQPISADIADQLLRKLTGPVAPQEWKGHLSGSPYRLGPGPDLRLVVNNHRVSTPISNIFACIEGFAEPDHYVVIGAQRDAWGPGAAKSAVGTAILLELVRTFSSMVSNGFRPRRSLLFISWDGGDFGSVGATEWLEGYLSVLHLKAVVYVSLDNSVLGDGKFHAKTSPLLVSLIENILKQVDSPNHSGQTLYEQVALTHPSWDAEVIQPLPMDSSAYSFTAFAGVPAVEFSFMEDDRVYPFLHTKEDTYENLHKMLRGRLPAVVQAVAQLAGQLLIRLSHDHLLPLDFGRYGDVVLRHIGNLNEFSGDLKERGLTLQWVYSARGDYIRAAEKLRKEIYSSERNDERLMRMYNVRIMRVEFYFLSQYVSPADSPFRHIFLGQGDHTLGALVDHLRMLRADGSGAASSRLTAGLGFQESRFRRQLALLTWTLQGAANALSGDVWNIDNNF
Description: For this purpose, Tfr2-ECD is immobilized on a Series S Sensor Chip C1 (GE Healthcare), by means of coupling the amino groups at 25° C. The carboxyl groups on the chip surface are activated for 7 minutes using a mixture of 196 mM 1-ethyl-3-(3-dimethylaminopropyl) carbodiimide-hydrochloride and 50 mM n-hydroxysuccinimide at a flow rate of 10 μl/min. Subsequently, 5 μg/ml Tfr2-ECD, diluted with sodium acetate buffer (pH 4.5), is injected at a flow rate of 5 μl/min up to a relative occupancy of 200 RU. Non-reacted groups are inactivated by injecting 1 M thanolamine-HCl (pH 8.5) for 7 minutes at a flow rate of 10 μl/min. In order to prepare a reference surface, the same procedure is carried out but without Tfr2-ECD being injected.
The binding assays are carried out at 37° C. at a flow rate of 30 μl/min. Each analyte is diluted by a running buffer (HBS-P, pH 7.4 together with 50 nM FeCl3). […] The values of the binding level are read out, relative to the baseline, 10 s before the end of the injection and are corrected with respect to the molar mass. […] The binding parameters are determined using the Biacore™ T100 evaluation software 2.03. […]
For binding analysis, an injection of analyte for 240 s or 300 s over a Tfr2-ECD surface was followed by 1000 s dissociation. The values of the binding levels were recorded from referenced signals 10 s before the end of injection relative to baseline response. […]

[4] = target: T2, BMP-2 binding to Tfr2-ECD (Homo sapiens, UniProt P12643); assay: SPR competition / sequential injection experiments on Tfr2-ECD surface; conditions: sequential injection of BMP-2 and holo-Tf
T2 construct: full-length extracellular domain (ECD, aa 103-798) of murine Tfr2; His (N); MBP (N); c3 (protease site between MBP and ECD) (N); host or cells: Sf9 insect cells (Tfr2-ECD)
T2 sequence (P12643 283-396): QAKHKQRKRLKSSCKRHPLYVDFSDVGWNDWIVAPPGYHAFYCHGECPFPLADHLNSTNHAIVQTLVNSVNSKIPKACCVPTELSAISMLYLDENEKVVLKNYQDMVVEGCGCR
Description: The binding analysis was performed at 37° C. at a flow rate of 30 μl/min. […] In some experiments, 500 mM NaCl were used to reduce potential non-specific binding. […] Concentration-dependent binding of holo-Tf was performed without intermediate regeneration.

Row | Molecule | Increase of Sost mRNA expression ([1]; Tfr2 osteoblasts) [fold] | Increase of Sost mRNA expression ([1]; WT osteoblasts) [fold] | ERK and p38 phosphorylation [2] | Osteoclast numbers (Oc.S/BS) [3] | Bone volume (BV/TV of the fourth lumbar vertebrae) ([3]; Tfr2-/- mice) | Osteoblast numbers (N.Ob/B.Pm) ([3]; Tfr2-/- mice) | Serum levels of sclerostin ([3]; Tfr2-/- mice) | Kd value of holo-Tf binding to Tfr2 (Tfr2-ECD) | Competition with BMP-2 for binding to Tfr2 [4]
1 | COc1ccc(C[C@H]2NC[C@H](O)[C@H]2OC(C)=O)cc1 [anisomycin] | 19 | 14 | induced ERK and p38 phosphorylation | not altered | decreased bone volume back to WT levels | reduced | increased |  | 
2 | Holo-Tf: holo-transferrin, the only known Tfr2 ligand |  |  |  |  |  |  |  | micromolar range | did not compete
